Format in all cases: functional
For one assay, the system named is P388. Briefly: Cytotoxicity against mouse P388 cells. The following applies: read-out: ED50 (the source's name).
A further assay relates to MCF7. Kind of assay: Cytotoxicity against human MCF7 cells after 48 hrs by SRB assay. Conditions: MCF7, 48 h, read-out: ED50 (the source's name). (In SRB staining, fixed cells bind dye roughly in proportion to their protein.)
For a further assay, the system named is NCI-H460. Briefly: Cytotoxicity against human NCI-H460 cells after 48 hrs by SRB assay. Conditions: NCI-H460, 48 h, read-out: ED50 (the source's name).
In a further assay the test system is DU-145. Briefly: Cytotoxicity against human DU145 cells after 48 hrs by SRB assay. The following applies: DU-145, 48 h, read-out: ED50 (the source's name).
The next assay has as its system SF-268. Kind of assay: Cytotoxicity against human SF268 cells after 48 hrs by SRB assay. Conditions: SF-268, 48 h, read-out: ED50 (the source's name).
A further assay has as its system KM-20L2. Kind of assay: Cytotoxicity against human KM20L2 cells after 48 hrs by SRB assay. Conditions: KM-20L2, 48 h, read-out: ED50 (the source's name).
In the next assay the test system is BXPC-3. Kind of assay: Cytotoxicity against human BxPC3 cells after 48 hrs by SRB assay. Conditions: BXPC-3, 48 h, read-out: ED50 (the source's name).

Converted amounts (≈) assume the structure as drawn.

Consider `[O-]c1cc2c3c(c1)c1cc4c(cc1c[n+]3CC2)OCO4` [UNGEREMINE], for which the EC50 in the assay on P388 stood at 1.2 µg/mL (≈ 4.52 µM); with MCF7, 0.48 µg/mL (≈ 1.81 µM); in the assay on NCI-H460 it was 0.65 µg/mL (≈ 2.45 µM); with DU-145, 0.029 µg/mL (≈ 0.109 µM); in the assay with SF-268 it was 0.057 µg/mL (≈ 0.215 µM); in the assay on KM-20L2, 0.5 µg/mL (≈ 1.88 µM). In the assay on BXPC-3, the EC50 stood at 0.87 µg/mL (≈ 3.28 µM).
For `O=C1N[C@H]2[C@H](O)[C@H](O)[C@@H](O)[C@H](O)[C@@H]2c2cc3c(c(O)c21)OCO3` [PANCRATISTATIN], the EC50 worked out at 0.048 µg/mL (≈ 0.148 µM) with P388; 0.035 µg/mL (≈ 0.108 µM) with MCF7; 0.029 µg/mL (≈ 0.0892 µM) with NCI-H460; 0.037 µg/mL (≈ 0.114 µM) in the assay on DU-145; 0.032 µg/mL (≈ 0.0984 µM) in the assay with SF-268; 0.048 µg/mL (≈ 0.148 µM) with KM-20L2. For the same compound, the EC50 in the assay with BXPC-3 was 0.043 µg/mL (≈ 0.132 µM).
For the compound `O=C1N[C@@H]2C(=C[C@H](O)[C@@H](O)[C@H]2O)c2cc3c(c(O)c21)OCO3` [NARCICLASINE], the EC50 in the assay on P388 was determined as 0.018 µg/mL (≈ 0.0586 µM); in the assay on MCF7, 0.014 µg/mL (≈ 0.0456 µM); with NCI-H460, 0.014 µg/mL (≈ 0.0456 µM); in the assay on DU-145, 0.012 µg/mL (≈ 0.0391 µM); in the assay with SF-268 it was 0.018 µg/mL (≈ 0.0586 µM); with KM-20L2 it was 0.023 µg/mL (≈ 0.0749 µM). Besides, the EC50 with BXPC-3 worked out at 0.024 µg/mL (≈ 0.0781 µM).
